Experimental findings from patent US20100035926A1, “PYRAZOLE DERIVATIVES AS NON-STEROIDAL GLUCOCORTICOID RECEPTOR LIGANDS” (priority 2006, published 2010) are described below.

Experiment [1] concerns the target T1, GR (Homo sapiens, UniProt P04150).
T1 construct: endogenous in cells; host or cells: A549 (human lung carcinoma, ECACC No. 86012804), stably transfected with reporter plasmids only
T1 sequence (P04150 1-777): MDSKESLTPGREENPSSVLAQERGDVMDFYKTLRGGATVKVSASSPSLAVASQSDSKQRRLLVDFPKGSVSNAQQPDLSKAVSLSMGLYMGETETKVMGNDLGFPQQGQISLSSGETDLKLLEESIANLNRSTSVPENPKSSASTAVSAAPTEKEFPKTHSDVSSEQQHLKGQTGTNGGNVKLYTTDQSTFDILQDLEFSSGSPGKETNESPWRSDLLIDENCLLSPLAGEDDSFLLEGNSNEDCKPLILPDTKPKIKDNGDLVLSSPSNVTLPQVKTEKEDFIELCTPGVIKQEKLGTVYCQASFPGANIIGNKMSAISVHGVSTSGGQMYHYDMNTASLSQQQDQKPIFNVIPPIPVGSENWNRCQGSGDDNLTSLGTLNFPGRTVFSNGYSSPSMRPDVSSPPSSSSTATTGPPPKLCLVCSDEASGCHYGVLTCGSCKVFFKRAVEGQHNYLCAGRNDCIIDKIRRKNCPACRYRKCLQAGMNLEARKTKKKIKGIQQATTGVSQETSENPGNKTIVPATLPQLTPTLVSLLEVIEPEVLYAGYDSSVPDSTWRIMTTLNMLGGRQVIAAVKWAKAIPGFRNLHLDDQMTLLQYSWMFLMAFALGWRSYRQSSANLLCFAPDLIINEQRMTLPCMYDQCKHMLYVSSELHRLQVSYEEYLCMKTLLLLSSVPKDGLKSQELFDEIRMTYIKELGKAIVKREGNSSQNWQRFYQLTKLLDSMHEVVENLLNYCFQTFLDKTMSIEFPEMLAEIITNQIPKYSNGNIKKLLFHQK
Briefly: GR Functional Assay - NFκB Assay (A549 SPAP cells, TNFα stimulated). It is filed as cell-based. To be noted: for Emax: agonists, read-out: average maximum asymptote in the NFkB assay. The method, then:
Stimulation of the cell line with TNFα results in intracellular signal transduction and ultimately translocation of NFκB into the nucleus. This activates the inserted DNA sequence resulting in transcription of the integrated SPAP gene, which is quantified using a calorimetric assay. […] The stably transfected cell line was grown as a monolayer in DMEM supplemented with FCS-HI (10%), Non-essential amino acids (1%), L-Glutamine (2 mM), Pen/Strep (1%) and Geneticin (50 mg/ml).
A 70% confluent T225 flask of A549 SPAP cells was harvested by centrifugation for 5 mins at 200 g, resuspended in assay buffer (DMEM supplemented with 10% FCS 2×HI, 2 mM L-Glutamine, 1% Pen/Strep and Non essential amino acids) and diluted to 0.16×10^6/ml. 60 μl of cell solution was dispensed to each well of clear Nunc 384-well plates, containing compound at the required concentration. […] Plates were equilibrated to room temperature for 1 hr prior to the addition of 25 μl of pNPP buffer (1M Diethanolamine pH 9.8, 0.5 mM MgCl2, 0.28M NaCl, 2 mg/ml pNPP) to each well of assay plates.

Experiment [2] deals with T1, GR. The experiment can be described thus: GR Agonist Assay - MMTV Assay (A549 MMTV cells, renilla luciferase reporter). It is filed as cell-based. Particulars: 6 h, agonists, read-out: average maximum asymptote in the MMTV agonist assay. The method, then: Stimulation of the cell line with GR agonists results in intracellular signal transduction and ultimately translocation of GR into the nucleus. This activates the inserted DNA sequence resulting in transcription of the integrated luciferase gene, which is quantified using a light emission. The stably transfected cell line was grown as a monolayer in DMEM supplemented with FCS-HI (10%), Non-essential amino acids (1%), L-Glutamine (2 mM), Pen/Strep (1%) and Geneticin (50 mg/ml).
A 90% confluent T175 flask of A549 MMTV cells was harvested by centrifugation for 5 min at 200 g, resuspended in assay buffer (DMEM supplemented with 10% FCS 2×HI, 2 mM Glutamax, Non essential amino acids and 25 mM HEPES) and diluted to 0.1×10^6/ml. 70 μl of cell solution was dispensed to each well of white Nunc 384-well plates, containing compound at the required concentration. […] The plates were covered to protect the reagents from light, and then incubated at room temperature for approximately 15 mins before reading them on a Viewlux.
For orientation: Reporter assays use an easily measured gene product as a stand-in for the process of interest.

A further experiment has as its target T2, Progesterone Receptor (Homo sapiens, UniProt P06401).
T2 construct: expressed in transfected cells; host or cells: CV-1 cells transduced with PRb-BacMam and MMTV-BacMam
T2 sequence (P06401 1-933): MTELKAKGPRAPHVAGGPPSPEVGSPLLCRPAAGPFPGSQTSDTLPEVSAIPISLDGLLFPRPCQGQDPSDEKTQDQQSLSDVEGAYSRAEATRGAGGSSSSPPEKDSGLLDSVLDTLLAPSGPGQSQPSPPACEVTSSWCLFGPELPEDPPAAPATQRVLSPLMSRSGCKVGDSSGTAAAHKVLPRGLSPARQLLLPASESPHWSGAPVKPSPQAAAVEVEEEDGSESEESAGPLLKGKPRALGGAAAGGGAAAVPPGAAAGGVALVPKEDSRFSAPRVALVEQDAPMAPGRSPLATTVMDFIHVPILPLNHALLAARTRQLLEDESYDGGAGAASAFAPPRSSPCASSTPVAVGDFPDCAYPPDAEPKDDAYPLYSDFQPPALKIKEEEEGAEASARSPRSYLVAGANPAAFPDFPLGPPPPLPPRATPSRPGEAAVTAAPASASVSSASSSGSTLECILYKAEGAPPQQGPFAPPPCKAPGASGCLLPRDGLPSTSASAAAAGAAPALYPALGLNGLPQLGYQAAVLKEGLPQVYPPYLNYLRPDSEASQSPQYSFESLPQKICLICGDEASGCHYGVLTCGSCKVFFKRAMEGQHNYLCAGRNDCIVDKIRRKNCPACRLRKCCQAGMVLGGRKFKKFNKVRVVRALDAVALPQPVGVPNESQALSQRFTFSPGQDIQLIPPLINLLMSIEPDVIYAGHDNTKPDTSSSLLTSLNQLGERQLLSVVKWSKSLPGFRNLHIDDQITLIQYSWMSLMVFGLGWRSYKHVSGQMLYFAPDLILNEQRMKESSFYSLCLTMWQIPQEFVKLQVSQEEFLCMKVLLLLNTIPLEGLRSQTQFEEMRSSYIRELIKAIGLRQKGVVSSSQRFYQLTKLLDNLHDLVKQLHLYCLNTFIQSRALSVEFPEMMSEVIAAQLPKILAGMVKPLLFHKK
The experiment can be described thus: Assay for Progesterone Receptor Agonist Activity (CV-1 cells, PRb-BacMam, MMTV-BacMam). Particulars: at least once in this assay, read-out: progesterone receptor agonist pEC50 (converted). It is filed as cell-based. The method, then: A T225 flask of CV-1 cells at a density of 80% confluency was washed with PBS, detached from the flask using 0.25% trypsin and counted using a Sysmex KX-21N. Cells were diluted in DMEM containing 10% Hyclone, 2 mM […] and 1% Pen/Strep at 140 cells/μl and transduced with 10% PRb-BacMam and 10% MMTV-BacMam. […] of suspension cells were dispensed to each well of white Nunc 384-well plates, containing compounds at the required concentration. After 24 hr 10 μl of Steadylite were added to each well of the plates. Plates were incubated in the dark for 10 min before reading them on a Viewlux reader. Dose response curves were constructed from which pEC50 values were estimated.

A further experiment concerns the target T3, glucocorticoid receptor (Homo sapiens, UniProt P04150).
T3 construct: a partially purified full length glucocorticoid receptor
T3 sequence (P04150 1-777): T1 sequence (P04150 1-777)
The experiment can be described thus: Glucocorticoid Receptor Binding Assay (fluorescence polarisation, displacement of Alexa 555 labelled dexamethasone derivative). Particulars: at least once in this assay; read-out: glucocorticoid binding pIC50 (converted). The method, then:
Compounds were solvated and diluted in DMSO, and transferred directly into assay plates. Fluorescent dexamethasone and a partially purified full length glucocorticoid receptor were added to the plates, together with buffer components to stabilise the GR protein and incubated at room temperature for 2 hr in the dark. Binding of each compound was assessed by analysing the displacement of fluorescent ligand by measuring the decrease in fluorescence polarisation signal from the mixture.
Background: Polarisation of emitted light reports the rotation of a fluorescent probe.

The mark [3] stands for this setting: at least once in the NFkB assay, A549 SPAP cells, read-out: pIC50 in the NFkB assay (converted).
[4] abbreviates: at least once, examples listed as agonists in NFkB and MMTV assays, read-out: potency pIC50 in the NFKB assay (converted).

Each structure is given as a SMILES string. Where two headings read alike, the source gives them in different places. A value given as a limit tells only on which side of the number the result lay.

On to `CCN(CC(O)(CNC(=O)c1cnn(-c2ccc(F)cc2)c1N)C(F)(F)F)C(=O)c1cccc2cccnc12` (racemic) [Example 8 (racemic), N-{2-[({[5-amino-1-(4-fluorophenyl)-1H-pyrazol-4-yl]carbonyl}amino)methyl]-3,3,3-trifluoro-2-hydroxypropyl}-N-ethyl-8-quinolinecarboxamide], for which the Emax at GR [1] (A549 SPAP cells) and at GR [2] was not below 40% in each case. The IC50 at GR [1] (setting [3]) is less than 1000 nM; on GR [1] (setting [4]) it was less than 316 nM. Also, the EC50 on Progesterone Receptor is more than 1000 nM.

`CCN(CC(O)(CNC(=O)c1cnn(-c2ccc(F)cc2)c1N)C(F)(F)F)C(=O)c1ccccc1Cl` (single isomer, unassigned) [Example 16 Enantiomer 1, 5-amino-N-(2-{[[(2-chlorophenyl)car-bonyl](ethyl)amino]methyl}-3,3,3-trifluoro-2-hydroxypropyl)-1-(4-fluorophenyl)-1H-pyrazole-4-carboxamide]: the EC50 at Progesterone Receptor was more than 1000 nM.

As for `CCN(CC(O)(CNC(=O)c1cnn(-c2ccc(F)cc2)c1N)C(F)(F)F)C(=O)c1ccccc1F` (single isomer, unassigned) [Example 4 Enantiomer 1, 5-Amino-N-[2-({ethyl[(2-fluorophenyl)carbonyl]amino}methyl)-3,3,3-trifluoro-2-hydroxypropyl]-1-(4-fluorophenyl)-1H-pyrazole-4-carboxamide], the IC50 on GR [1] (setting [3]) was less than 1000 nM. In addition, the EC50 on Progesterone Receptor is more than 1000 nM.

As for `CCN(CC(O)(CNC(=O)c1cnn(-c2ccc(F)cc2)c1N)C(F)(F)F)C(=O)c1ncccc1Cl` (racemic) [Example 3 (racemic), N-[2-[({[5-Amino-1-(4-fluorophenyl)-1H-pyrazol-4-yl]carbonyl]amino)methyl]-3,3,3-trifluoro-2-hydroxypropyl}-3-chloro-N-ethyl-2-Pyridinecarboxamide], the EC50 at Progesterone Receptor is more than 1000 nM.

For `CCN(CC(O)(CNC(=O)c1cnn(-c2ccc(F)cc2)c1N)C(F)(F)F)C(=O)c1ccccc1` (single isomer, unassigned) [Example 14 Enantiomer 1, 5-amino-N-(2-{[ethyl(phenylcar-bonyl)amino]methyl}-3,3,3-trifluoro-2-hydroxypropyl)-1-(4-fluorophenyl)-1H-pyrazole-4-carboxamide], on glucocorticoid receptor, the IC50 is less than 1000 nM. Also, at Progesterone Receptor, the EC50 was more than 1000 nM.

Consider `CCN(CC(O)(CNC(=O)c1cnn(-c2ccc(F)cc2)c1N)C(F)(F)F)C(=O)c1ccccc1Cl` (racemic) [Example 16 (racemic), 5-amino-N-(2-{[[(2-chlorophenyl)car-bonyl](ethyl)amino]methyl}-3,3,3-trifluoro-2-hydroxypropyl)-1-(4-fluorophenyl)-1H-pyrazole-4-carboxamide], for which, on Progesterone Receptor, the EC50 is more than 1000 nM.

Turning to `Nc1c(C(=O)NCC(O)(CN(CCF)C(=O)c2ccccc2)C(F)(F)F)cnn1-c1ccc(F)cc1` (single isomer, unassigned) [Example 1 Enantiomer 1, 5-Amino-1-(4-fluorophenyl)-N-(3,3,3-trifluoro-2-{[(2-fluoroethyl)(phenylcarbonyl)amino]methyl}-2-hydroxypropyl)-1H-pyrazole-4-carboxamide], the IC50 at glucocorticoid receptor and on GR [1] (setting [3]) was less than 1000 nM in each case. In addition, the EC50 at Progesterone Receptor is more than 1000 nM.

For `CN(CC(O)(CNC(=O)c1cnn(-c2ccc(F)cc2)c1N)C(F)(F)F)C(=O)c1ccccc1C(F)(F)F` (racemic) [Example 28 (racemic), 5-amino-1-(4-fluorophenyl)-N-{3,3,3-trifluoro-2-hydroxy-2-[(methyl{[2-(trifluoromethyl)phenyl]carbonyl}amino)methyl]propyl}-1H-pyrazole-4-carboxamide], the IC50 was less than 1000 nM at glucocorticoid receptor, less than 1000 nM at GR [1] (setting [3]) and less than 316 nM on GR [1] (setting [4]). The Emax at GR [1] (A549 SPAP cells) and at GR [2] was not below 40% each time.

For the compound `CCN(CC(O)(CNC(=O)c1cnn(-c2cccc(Cl)c2)c1N)C(F)(F)F)C(=O)c1ccccc1` (racemic) [Example 37 (racemic), 5-amino-1-(3-chlorophenyl)-N-(2-{[ethyl(phenylcar-bonyl)amino]methyl}-3,3,3-trifluoro-2-hydroxypropyl)-1H-pyrazole-4-carboxamide], the values for the IC50 on glucocorticoid receptor and on GR [1] (setting [4]) were less than 1000 nM and less than 316 nM, respectively. Further, the Emax on GR [1] (A549 SPAP cells) and at GR [2] was not below 40% throughout.
